Patent US12595255B2, “Heteroaryl-substituted imidazole derivatives” (Hoffmann-La Roche Inc., priority 2021, dated 2026)
Where two headings read alike, the source gives them in different places.

System: Acinetobacter baumannii ATCC17961
Assay: Antimicrobial susceptibility testing: 90% growth inhibitory concentration (IC90) determination
Assay type: cell-based
Description: Assay Procedures Antimicrobial Susceptibility Testing: 90% Growth Inhibitory Concentration (IC90) Determination
The in vitro antimicrobial activity of the compounds was determined according to the following procedure:
The assay used a 10-points Iso-Sensitest broth medium to measure quantitatively the in vitro activity of the compounds against Acinetobacter baumannii ATCC17961.
Stock compounds in DMSO were serially twofold diluted (e.g. range from 50 to 0.097 μM final concentration) in 384 wells microtiter plates and inoculated with 49 μl the bacterial suspension in Iso-Sensitest medium to have a final cell concentration of ˜5×10^5 CFU/ml in a final volume/well of 50 μl/well. Microtiter plates were incubated at 35±2° C.
Bacterial cell growth was determined with the measurement of optical density at λ=600 nm each 20 minutes over a time course of 16 h. Growth inhibition was calculated during the logarithmic growth of the bacterial cells with determination of the concentration inhibiting 50% (IC50) and 90% (IC90) of the growth.
Table 1 provides the 90% growth inhibitory concentrations (IC90) in micromoles per liter of the compounds of present invention obtained against the strain Acinetobacter baumannii ATCC17961.

[1] = ATCC17961, 90% growth inhibitory concentration, Iso-Sensitest broth, OD 600 nm over 16 h, 35±2° C., read-out: ATCC 17961 IC90

IC90 [1] [µM]	SMILES	IC90 (ATCC17961, 16 h, read-out: ATCC 17961 IC90 [μM]) [µM]
0.23	CN(C)c1nc(F)c(-c2cnc(C(=O)Nc3ccc(C(=O)N4CCN(C(=O)C[C@@H]5CCNC5)CC4)c(Cl)c3)n2C)cc1F [Example F2, N-[3-chloro-4-[4-[2-[(3S)-pyrrolidin-3-yl]acetyl]piperazine-1-carbonyl]phenyl]-5-[6-(dimethylamino)-2,5-difluoro-3-pyridyl]-1-methyl-imidazole-2-carboxamide]	
0.39	CN(C)c1nc(F)c(-c2cnc(C(=O)Nc3ccc(C(=O)N4CCN(C(=O)C5CC(CN)C5)CC4)c(Cl)c3)n2C)cc1F (stereo not shown) [Example F7, N-[4-[4-[3-(aminomethyl)cyclobutanecarbonyl]piperazine-1-carbonyl]-3-chloro-phenyl]-5-[6-(dimethylamino)-2,5-difluoro-3-pyridyl]-1-methyl-imidazole-2-carboxamide]	
0.76	CN(C)c1nc(F)c(-c2cnc(C(=O)Nc3ccc(C(=O)N4CCN(C(=O)CC5CC[N+](C)(C)CC5)CC4)c(Cl)c3)n2C)cc1F [Example D7, N-[3-chloro-4-[4-[2-(1,1-dimethylpiperidin-1-ium-4-yl)acetyl]piperazine-1-carbonyl]phenyl]-5-[6-(dimethylamino)-2,5-difluoro-3-pyridyl]-1-methyl-imidazole-2-carboxamide]	
	CN(C)c1nc(F)c(-c2cnc(C(=O)Nc3ccc(C(=O)NC4CCN(C(=O)CCOCC[N+](C)(C)C)CC4)c(Cl)c3)n2C)cc1F [Example D10, 2-[3-[4-[[2-chloro-4-[[5-[6-(dimethylamino)-2,5-difluoro-3-pyridyl]-1-methyl-imidazole-2-carbonyl]amino]benzoyl]amino]-1-piperidyl]-3-oxo-propoxy]ethyl-trimethyl-ammonium]	5.6
